US8134015B2, “Compound inhibiting in vivo phosphorous transport and medicine containing the same” (Kyowa Hakko Kirin Co., Ltd., priority 2003, dated 2012)

Biological target: T1, rat NaPi-2b (Rattus norvegicus, UniProt Q9JJ09)
T1 construct: expressed in transfected cells; host or cells: Xenopus oocytes injected with cRNA
T1 sequence (Q9JJ09 1-695): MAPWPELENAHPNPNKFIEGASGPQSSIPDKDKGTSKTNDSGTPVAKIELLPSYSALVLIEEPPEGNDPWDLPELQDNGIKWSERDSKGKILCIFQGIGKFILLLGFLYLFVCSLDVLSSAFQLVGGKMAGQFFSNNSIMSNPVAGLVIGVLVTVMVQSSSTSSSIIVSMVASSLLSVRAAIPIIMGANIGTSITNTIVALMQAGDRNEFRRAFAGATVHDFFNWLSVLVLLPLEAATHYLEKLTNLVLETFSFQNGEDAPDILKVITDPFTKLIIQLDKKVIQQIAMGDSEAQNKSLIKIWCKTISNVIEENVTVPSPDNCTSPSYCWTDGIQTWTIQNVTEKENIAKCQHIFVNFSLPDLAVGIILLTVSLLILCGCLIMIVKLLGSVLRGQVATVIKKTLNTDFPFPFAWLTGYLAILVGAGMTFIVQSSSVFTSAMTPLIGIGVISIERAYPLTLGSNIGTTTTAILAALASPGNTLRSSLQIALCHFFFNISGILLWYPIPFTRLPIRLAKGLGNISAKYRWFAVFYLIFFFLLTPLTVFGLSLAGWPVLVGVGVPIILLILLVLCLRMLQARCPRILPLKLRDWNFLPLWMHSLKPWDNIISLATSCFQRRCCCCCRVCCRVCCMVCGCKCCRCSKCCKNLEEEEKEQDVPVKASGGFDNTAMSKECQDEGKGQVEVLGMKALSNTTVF
Assay: Sodium-dependent phosphate uptake of Xenopus oocytes which expressed NaPi-2b (32P)
Format: cell-based
Conditions: Xenopus oocytes expressing rat NaPi-2b, 32P radioactive phosphorus; read-out: IC50 (phosphate uptake inhibitory activity)
Method in brief: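 Oocytes injected with rat NaPi-2b cRNA, cultured 2 d, then 32P uptake measured with compound. Values: % inhibition at 300 and 100 μM, both from one inhibition curve.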

| Compound | IC50 |
| --- | --- |
| C/C(=N\NC(=O)c1cc(Br)ccc1NC(=O)c1cccnc1)c1ccc(C)cc1 [Compound 216, N-[4-Bromo-2-(1-p-toluyl-ethylidene-hydrazinocarbonyl)-phenyl]-nicotinamide] | 21.8 µM |
| COc1ccc(/C=N/NC(=O)c2c(NC(=O)c3cccc(CN4CCC(N5CCCCC5)CC4)c3)sc3c2CCCC3)cc1 [Compound 620, 3-[1,4′]Bipiperidinyl-1′-ylmethyl-N-[3-(4-methoxy-benzylidene-hydrazinocarbonyl)-4,5,6,7-tetrahydro-benzo[b]thiophen-2-yl]-benzamide] | 3.58 µM |
| O=C(Nc1ccc(Br)cc1C(=O)N/N=C/c1ccc(Cl)c(C(F)(F)F)c1)c1ccc(CN2CCC(O)CC2)cc1 [Compound 329, N-[4-Bromo-2-(4-chloro-3-trifluoromethyl-benzylidene-hydrazinocarbonyl)-phenyl]-4-(4-hydroxy-piperidin-1-ylmethyl)-benzamide] | 5.63 µM |
| O=C(Nc1ccc(Cl)cc1C(=O)N/N=C/c1cccc(F)c1)c1cccc(CSc2nc[nH]n2)c1 [Compound 389, N-[4-Chloro-2-(3-fluoro-benzylidene-hydrazinocarbonyl)-phenyl]-3-(1H-[1,2,4]triazol-3-ylsulfanylmethyl)-benzamide] | 1.09 µM |
| CCc1ccc(C(=O)Nc2ccc(Br)cc2C(=O)N/N=C/c2ccc(Cl)c(C(F)(F)F)c2)cc1 [Compound 183, N-[4-Bromo-2-(4-chloro-3-trifluoromethyl-benzylidene-hydrazinocarbonyl)-phenyl]-4-ethyl-benzamide] | < 3 µM |
| COc1cccc(/C=N/NC(=O)c2cc(Br)ccc2NC(=O)c2ccc(CN3CCC(CO)CC3)cc2)c1 [Compound 339, N-[4-Bromo-2-(3-methoxy-benzylidene-hydrazinocarbonyl)-phenyl]-4-(4-hydroxymethyl-piperidin-1-ylmethyl)-benzamide] | 12.8 µM |
| Cc1ccc(/C=N/NC(=O)c2cc(N3CCCCC3)ccc2NC(=O)c2cccc(CN3CCC(O)CC3)c2)cc1C [Compound 870, N-[2-(3,4-Dimethyl-benzylidene-hydrazinocarbonyl)-4-piperidin-1-yl-phenyl]-3-(4-hydroxy-piperidin-1-ylmethyl)-benzamide] | 0.53 µM |
| O=C(Nc1ccc(Br)cc1C(=O)N/N=C/c1cccc(F)c1)c1ccc(CN2CCN(CC(=O)N3CCOCC3)CC2)cc1 [Compound 731, N-[4-Bromo-2-(3-fluoro-benzylidene-hydrazinocarbonyl)-phenyl]-4-[4-(2-morpholin-4-yl-2-oxo-ethyl)-piperazin-1-ylmethyl]-benzamide] | 19.2 µM |
| CCOc1cc(/C=N/NC(=O)c2ccccc2NC(=O)c2ccc(OC)c(OC)c2)ccc1O [Compound 37, N-[2-(3-Ethoxy-4-hydroxy-benzylidene-hydrazinocarbonyl)-phenyl]-3,4-dimethoxy-benzamide] | 13.5 µM |
| Cc1ccc(/C=N/NC(=O)c2cc(Br)ccc2NC(=O)c2ccc(CNCCCN(C)c3ccccc3)cc2)cc1C [Compound 757, N-[4-Bromo-2-(3,4-dimethyl-benzylidene-hydrazinocarbonyl)-phenyl]-4-{[3-(methyl-phenyl-amino)-propylamino]-methyl}-benzamide] | 18.8 µM |
| O=C(Nc1ccccc1C(=O)N/N=C/c1ccc(F)cc1)c1ccncc1 [Compound 135, N-[2-(4-Fluoro-benzylidene-hydrazinocarbonyl)-phenyl]-isonicotinamide] | 3.74 µM |
| O=C(Nc1ccc(Br)cc1C(=O)N/N=C/c1cccc(F)c1)c1ccc(CN2CCC(CO)CC2)cc1 [Compound 336, N-[4-Bromo-2-(3-fluoro-benzylidene-hydrazinocarbonyl)-phenyl]-4-(4-hydroxymethyl-piperidin-1-ylmethyl)-benzamide] | 16.6 µM |
| CN(Cc1ccc(C(=O)Nc2ccc(Br)cc2C(=O)N/N=C/c2ccc(Cl)c(C(F)(F)F)c2)cc1)CC(O)c1ccc(O)cc1 (stereo not drawn) [Compound 726, N-[4-Bromo-2-(4-chloro-3-trifluoromethyl-benzylidene-hydrazinocarbonyl)-phenyl]-4-({[2-hydroxy-2-(4-hydroxy-phenyl)-ethyl]-methyl-amino}-methyl)-benzamide] | < 3 µM |

Next, values leading:

| IC50 | Compound |
| --- | --- |
| 16.6 µM | CC(O)CN(Cc1cccc(C(=O)Nc2ccc(Cl)cc2C(=O)N/N=C/c2ccc(OCCCN(C)C)cc2)c1)CC(C)O (stereo not drawn) [Compound 998, 3-{[Bis-(2-hydroxy-propyl)-amino]-methyl}-N-{4-chloro-2-[4-(3-dimethylamino-propoxy)-benzylidene-hydrazinocarbonyl]-phenyl}-benzamide] |
| < 1 µM | CCCN(CCC)c1ccc(NC(=O)c2cccc(CN(C)CCN(CC)CC)c2)c(C(=O)N/N=C/c2ccc(Cl)c(C(F)(F)F)c2)c1 [Compound 911, N-[2-(4-Chloro-3-trifluoromethyl-benzylidene-hydrazinocarbonyl)-4-dipropylamino-phenyl]-3-{[(2-diethylamino-ethyl)-methyl-amino]-methyl}-benzamide] |
| 1.04 µM | Cc1ccc(/C=N/NC(=O)c2cc(Br)ccc2NC(=O)c2ccc(CSCCCO)cc2)cc1 [Compound 274, N-[4-Bromo-2-(4-methyl-benzylidene-hydrazinocarbonyl)-phenyl]-4-(3-hydroxy-propylsulfanylmethyl)-benzamide] |
| 1.79 µM | CCN(CCO)Cc1cccc(C(=O)Nc2ccc(Cl)cc2C(=O)N/N=C/c2cccc(C)c2)c1 [Compound 424, N-[4-Chloro-2-(3-methyl-benzylidene-hydrazinocarbonyl)-phenyl]-3-{[ethyl-(2-hydroxy-ethyl)-amino]-methyl}-benzamide] |
| 5 µM | Cc1cccc(/C=N/NC(=O)c2cc(Cl)ccc2NC(=O)c2cccc(CSc3nnnn3CCN(C)C)c2)c1 [Compound 464, N-[4-Chloro-2-(3-methyl-benzylidene-hydrazinocarbonyl)-phenyl]-3-[1-(2-dimethylamino-ethyl)-1H-tetrazol-5-ylsulfanylmethyl]-benzamide] |
| 7.8 µM | CCN(CC)CCNCc1ccc(C(=O)Nc2ccc(Br)cc2C(=O)N/N=C/c2cccc(C)c2)cc1 [Compound 294, N-[4-Bromo-2-(3-methyl-benzylidene-hydrazinocarbonyl)-phenyl]-4-[(2-diethylamino-ethylamino)-methyl]-benzamide] |
| 18.7 µM | O=C(Nc1sccc1C(=O)N/N=C/c1ccc(F)cc1)c1cccc(CSCCCO)c1 [Compound 660, N-[3-(4-Fluoro-benzylidene-hydrazinocarbonyl)-thiophen-2-yl]-3-(3-hydroxy-propylsulfanylmethyl)-benzamide] |
| 40.1 µM | CCN(CCO)Cc1ccc(C(=O)Nc2ccc(Cl)cc2C(=O)N/N=C/c2ccc(O)cc2)cc1 [Compound 441, N-[4-Chloro-2-(4-hydroxy-benzylidene-hydrazinocarbonyl)-phenyl]-4-{[ethyl-(2-hydroxy-ethyl)-amino]-methyl}-benzamide] |
| 12.6 µM | CC(O)CN(Cc1cccc(C(=O)Nc2cscc2C(=O)N/N=C/c2cccc(F)c2)c1)CC(C)O (stereo not drawn) [Compound 974, 3-{[Bis-(2-hydroxy-propyl)-amino]-methyl}-N-[4-(3-fluoro-benzylidene-hydrazinocarbonyl)-thiophen-3-yl]-benzamide] |
| 6.68 µM | COc1ccc(/C=N/NC(=O)c2cc(N3CCCCC3)ccc2NC(=O)c2cccc(CN3CCN(CCO)CC3)c2)cc1 [Compound 869, 3-[4-(2-Hydroxy-ethyl)-piperazin-1-ylmethyl]-N-[2-(4-methoxy-benzylidene-hydrazinocarbonyl)-4-piperidin-1-yl-phenyl]-benzamide] |
| 5.93 µM | COc1ccc(/C=N/NC(=O)c2cc(Br)ccc2NC(=O)c2ccc(CN3CCN(CCO)CC3)cc2)cc1 [Compound 322, N-[4-Bromo-2-(4-methoxy-benzylidene-hydrazinocarbonyl)-phenyl]-4-[4-(2-hydroxy-ethyl)-piperazin-1-ylmethyl]-benzamide] |
| 1.25 µM | CCN(CC)CCN(C)Cc1cccc(C(=O)Nc2ccc(N3CCCC3)cc2C(=O)N/N=C/c2ccc(Cl)c(C(F)(F)F)c2)c1 [Compound 917, N-[2-(4-Chloro-3-trifluoromethyl-benzylidene-hydrazinocarbonyl)-4-pyrrolidin-1-yl-phenyl]-3-{[(2-diethylamino-ethyl)-methyl-amino]-methyl}-benzamide] |
| < 3 µM | CCN(CC)CCN(C)Cc1cccc(C(=O)Nc2ccc(I)cc2C(=O)N/N=C/c2ccc(OC)cc2)c1 [Compound 479, 3-{[(2-Diethylamino-ethyl)-methyl-amino]-methyl}-N-[4-iodo-2-(4-methoxy-benzylidene-hydrazinocarbonyl)-phenyl]-benzamide] |
| 1.18 µM | CC(O)CN(Cc1cccc(C(=O)Nc2ccc(F)cc2C(=O)N/N=C/c2ccc(Cl)c(C(F)(F)F)c2)c1)CC(C)O (stereo not drawn) [Compound 857, 3-{[Bis-(2-hydroxy-propyl)-amino]-methyl}-N-[2-(4-chloro-3-trifluoromethyl-benzylidene-hydrazinocarbonyl)-4-fluoro-phenyl]-benzamide] |
